We go through one compound from patent US20070249633A1, “1,2,4-Triazolo[1,5a] Pyrimidines and Use Thereof for Controlling Plant-Pathogenic Fungi” (priority 2004, published 2007).

One assay has as its system Botrytis cinerea. Description: Activity against gray mold on bell pepper leaves caused by Botrytis cinerea (protective spray, seedlings). To be noted: 250 ppm active compound; bell pepper seedlings Neusiedler Ideal Elite; inoculated next day; assessed after 5 days; untreated plants 90% infected. The class given is in vivo. As for the experimental part:
The active compounds were prepared as a stock solution comprising 0.25% by weight of active compound in acetone or dimethyl sulfoxide (DMSO). 1% by weight of the emulsifier Uniperol® EL (wetting agent having emulsifying and dispersing action based on ethoxylated alkylphenols) was added to this solution, and the mixture was diluted with water to the desired concentration.
Bell pepper seedlings of the cultivar “Neusiedler Ideal Elite” were, after 2-3 leaves were well developed, sprayed to runoff point with an aqueous suspension having the concentration of active compound stated below. The next day, the treated plants were inoculated with a spore suspension of Botrytis cinerea which contained 1.7×10^6 spores/ml in a 2% strength aqueous biomalt solution. The test plants were then placed in a climatized chamber at 22-24° C. and high atmospheric humidity. After 5 days, the extent of the fungal infection on the leaves could be determined visually in %.

The next assay relates to Alternaria solani. The assay can be described thus: Activity against early blight of tomato caused by Alternaria solani (protective spray, potted plants). The class given is in vivo. Conditions: 250 ppm active compound; tomato cultivar St. Pierre beef tomato; infected next day; assessed after 5 days; untreated plants 80% infected. As for the experimental part: The active compounds were prepared as a stock solution comprising 0.25% by weight of active compound in acetone or dimethyl sulfoxide (DMSO). 1% by weight of the emulsifier Uniperol® EL (wetting agent having emulsifying and dispersing action based on ethoxylated alkylphenols) was added to this solution, and the mixture was diluted with water to the desired concentration. Leaves of potted plants of the cultivar “St. Pierre beef tomato” were sprayed to run off point with an aqueous suspension having the concentration of active compounds stated below. The next day, the leaves were infected with an aqueous zoospore suspension of Alternaria solani in 2% biomalt solution having a density of 0.17×10^6 spores/ml. The plants were then placed in a water-vapor-saturated chamber at temperatures of between 20 and 22° C. After 5 days, the infection on the leaves of the untreated, but infected control plants had developed to such an extent that the infection could be determined visually in %.

`CCC(C)Cc1c(-c2ccc([N+](=O)[O-])cc2Cl)c(C)nc2ncnn12` (centres unmarked) [example 1, 5-methyl-6-(2chloro-4-nitrophenyl)-7-(2-methylbutyl)-1,2,4-triazolo[1,5-a]pyrimidine]: the “extent of the fungal infection on the leaves determined visually in %” value in the assay on Botrytis cinerea was “no infection”. Also, the “infection on the leaves determined visually in %” value with Alternaria solani is reported as “less than 5%”.
